As a reminder, the IC50 is the concentration needed to halve the response being measured. Usually IC90 stands for the concentration at which the effect reaches the 90% level. The term ED50 denotes the dose that gives a 50% effect, or the effect in half of the subjects.

Like-named read-outs stand apart in the source and are kept apart here.

For assay [1], the system named is TRPM8 on cutaneous nerve terminals (C fibers). Description: Skin-nerve preparation, menthol-evoked activation of C fibers. More on the design: species or system mouse. The settings on record: 10 μM; 300 μM menthol; n = 22; p = 0.005. An excerpt:
Adult C57BL/6 mice were obtained from Jackson Laboratories and used for ex vivo skin-nerve preparations. Mice were allowed to acclimate to the animal facility at the Medical College of Wisconsin, an Association for the Assessment and Accreditation of Laboratory Animal […] (AALAC)-accredited facility, for approximately 1 week following shipment. Animals were housed with up to four other cagemates and had ad libitum access to food pellets and hyper-chlorinated water. Mice were housed on a 14:10 h light-dark cycle in cages containing aspen bedding and paper nesting material. Room temperatures averaged 21 °C. Prior to use, animals were briefly anesthetized with inhaled isoflurane and then sacrificed via cervical dislocation.
The mouse saphenous skin-nerve in vitro preparation (Koltzenburg et al. [1997]; Stucky et al. [1999]) was used for electrophysiological recordings of cutaneous terminals of primary afferent fibers in situ. […] Once a unit with a signal to noise ratio >2 was identified, the mechanical threshold was determined using calibrated von Frey filaments (range, 0.44–147.0 mN). […]
Wave forms of action potentials evoked by mechanical stimuli were saved on an oscilloscope for comparison of shape and profile. […] Action potentials were discriminated and counted off-line using a spike histogram software extension. […] All data was also analyzed in a blinded manner.

Assay [2] concerns the target T1, rat TRPA1 (Rattus norvegicus, UniProt Q6RI86).
T1 construct: expressed in transfected cells; host or cells: CHO, T-REx tetracycline-inducible system (Invitrogen), co-transfected with aequorin
Description: Luminescence (aequorin) readout of intracellular calcium, CHO cells expressing rat TRPA1, AITC activation. Format: cell-based. An excerpt:
Stable Chinese hamster ovary (CHO) cell lines expressing rat TRPA1, rat TRPM8, rat TRPV3, and human TRPV4 were generated using the tetracycline-inducible T-REx™ expression system from Invitrogen (Carlsbad, CA) and a stable CHO cell line expressing rat TRPV1 was generated using a constitutive expression system (Klionsky et al. [2007]). To enable a luminescence readout based on intracellular increase in calcium (Le Poul et al. [2002]), each cell line was also co-transfected with pcDNA3.1 plasmid containing jelly fish aequorin cDNA. Twenty-four hours before the assay, cells were seeded in 96-well plates and all TRP channel expression, except for TRPV1, was induced with 0.5 ug/mL tetracycline. […] Luminescence was measured by a CCD camera-based FLASH-luminometer built by Amgen, Inc. The following agonists were used to activate TRP channels: 0.5 uM capsaicin for TRPV1, 80 uM allyl isothiocyanate (AITC) for TRPA1, 1 uM icilin or cold buffer (12 °C) for TRPM8, 200 uM aminoethoxydiphenyl borate (2-APB) for TRPV3, and 1 uM 4α-phorbol 12,13-didecanoate (4α-PDD) for TRPV4. Antagonist IC50 values were calculated using GraphPad Prism 4.01 (GraphPad Software Inc, San Diego, CA).
In general terms: Calcium flux is commonly read through the fluorescence of an indicator in the cells.

In assay [3] the test system is TRPM8-mediated icilin-induced wet-dog shakes in rats. Description: Icilin-induced wet-dog shake (WDS) model. Format: in vivo, rat. The method, then:
The TRPM8 antagonist (1, 3, or 10 mg/kg) or vehicle control (5 % Tween 80 in OraPlus®) was administered p.o. 90 min prior to administration of icilin (0.5 mg/kg, 1 ml/kg, i.p., 100 % PEG 400). […] Rats were viewed through transparent Plexiglas® observation cylinders that were placed on a custom, opaque, plastic apparatus such that one rat could not view another rat.
In vivo IC50 and IC90 estimates using WDS model data were determined by fitting a sigmoidal dose-response curve to individual animal number of WDS versus resulting plasma concentration. Behavioral and electrophysiological data are expressed as mean ± standard error of the mean (S.E.M.). Results were analyzed using one-way analysis of variance (ANOVA) with Dunnett’s multiple-comparisons post-hoc test for significance relative to vehicle. […] Actual gram values are plotted on a logarithmic scale Y-axis of the figures for convenience. Statistical calculations and graphs were made using GraphPad Prism 5.01 (GraphPad Software Inc, San Diego, CA). Percent responders to menthol stimulation in the ex vivo skin-nerve preparation were compared under vehicle and antagonist conditions through the use of Fisher’s exact test. Responses of C fibers to increasing mechanical forces under vehicle or antagonist conditions were compared using a two-way ANOVA with a Bonferonni post-hoc analysis.

For assay [4], the system named is CFA-injected rats. Description: CFA-induced hypersensitivity (rearing on prickly floor). In kind it is in vivo, rat. The settings on record: 100 mg/kg p.o.; p > 0.05 vs CFA vehicle ([…] s). The method, then: Rats were habituated in a reversed light cycle room for at least 1 week and to the testing room for 1 h prior to dosing. […] Twenty-one hours after the CFA injection, animals were treated (p.o.) with vehicle (5 % Tween 80 in OraPlus®) or TRPM8 antagonist. Two hours after drug dosing (23 h after CFA injection), rats were placed in the same Kinder Scientific open field boxes as described above but with customized prickly floor inserts placed inside. Rearing time and rearing counts were measured for 60 min.

T1 sequence (Q6RI86 whole entry): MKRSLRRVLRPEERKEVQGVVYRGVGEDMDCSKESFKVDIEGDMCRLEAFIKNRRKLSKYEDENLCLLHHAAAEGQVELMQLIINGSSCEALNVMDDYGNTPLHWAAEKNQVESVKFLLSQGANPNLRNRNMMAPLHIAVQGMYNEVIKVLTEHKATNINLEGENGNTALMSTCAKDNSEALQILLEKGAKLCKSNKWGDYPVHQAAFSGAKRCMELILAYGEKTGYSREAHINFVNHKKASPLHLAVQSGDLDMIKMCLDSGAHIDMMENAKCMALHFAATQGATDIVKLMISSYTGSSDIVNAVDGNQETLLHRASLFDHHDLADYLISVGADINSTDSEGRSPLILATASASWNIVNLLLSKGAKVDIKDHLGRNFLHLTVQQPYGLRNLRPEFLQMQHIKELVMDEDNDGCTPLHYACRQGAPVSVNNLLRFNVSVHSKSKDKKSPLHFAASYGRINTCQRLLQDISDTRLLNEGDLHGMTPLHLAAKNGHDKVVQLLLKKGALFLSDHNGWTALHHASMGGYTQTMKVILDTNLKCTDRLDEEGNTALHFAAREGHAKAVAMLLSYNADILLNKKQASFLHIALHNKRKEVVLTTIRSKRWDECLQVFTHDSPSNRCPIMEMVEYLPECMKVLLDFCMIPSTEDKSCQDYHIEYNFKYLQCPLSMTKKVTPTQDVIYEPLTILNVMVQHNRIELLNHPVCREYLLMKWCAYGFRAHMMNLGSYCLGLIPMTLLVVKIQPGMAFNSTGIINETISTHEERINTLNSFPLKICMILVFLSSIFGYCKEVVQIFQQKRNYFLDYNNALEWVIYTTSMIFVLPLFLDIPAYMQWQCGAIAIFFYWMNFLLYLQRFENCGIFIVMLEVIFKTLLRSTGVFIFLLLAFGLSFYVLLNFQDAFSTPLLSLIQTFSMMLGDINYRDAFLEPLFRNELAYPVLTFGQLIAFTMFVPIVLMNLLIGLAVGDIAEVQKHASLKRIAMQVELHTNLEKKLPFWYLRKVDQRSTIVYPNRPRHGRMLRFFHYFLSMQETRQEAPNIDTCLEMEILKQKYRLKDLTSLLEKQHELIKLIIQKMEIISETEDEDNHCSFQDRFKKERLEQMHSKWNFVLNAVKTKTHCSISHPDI

Regarding `C[C@H](NC(=O)N1CCc2cccnc2[C@H]1c1ccc(C(F)(F)F)cc1)C(F)(F)F` [AMG2850, (R)-8-(4-(trifluoromethyl)phenyl)-N-((S)-1,1,1-trifluoropropan-2-yl)-5,6-dihydro-1,7-naphthyridine-7(8H)-carboxamide], the “effect on menthol-evoked firing of C fibers” value in assay [1] is recorded as “completely inhibited all menthol-evoked firing”. In addition, the IC50 in assay [2] (80 uM AITC, read-out: rTRPA1 IC50) was greater than 25 µM; in assay [2] (agonism, read-out: rTRPA1 agonism IC50), greater than 25 µM. In addition, the “prevention of icilin-induced WDS” value in assay [3] (10 mg/kg p.o., 90 min before icilin 0.5 mg/kg i.p.) is “Full prevention”. In assay [3] (Rattus norvegicus, ip, unbound plasma concentration, icilin 0.5 mg/kg i.p., read-out: Rat PD IC90 (unbound mean in vivo IC90, WDS model)), the IC90 amounted to 0.099 µM. The median effective dose (ED50) in assay [3] (Rattus norvegicus, p.o., icilin 0.5 mg/kg i.p., read-out: Rat PD ED50) was found to be 1.8 mg/kg. The “rearing time, CFA model” value in assay [4] was determined as 157 ± 25 s.

Values taken from publication PMC4359714 (Naunyn-Schmiedeberg's Archives of Pharmacology, 2015).
